Experimental data: US4419349A (priority 1978, dated 1983)

Assays:
Format in all cases: cell-based
rabbit spleen cells = system: rabbit spleen cells
mouse spleen cells = assay: IF induction in vitro, mouse (Table 6); settings: control 1.0 μg/ml
Experimental: (§1) A spleen cell suspension (10^7 cells/ml) was prepared by the method of hereinafter described Experiment 1 using an Eagle MEM medium (commercial product of Nissui Seiyaku K.K., Tokyo) containing a 10% calf serum (which was replaced by a 10% fetal cattle serum in the cases of human tests), each of which fraction (1 ml) was added with a given concentration of the sample of the active substance and incubated at a given temperature. The cultured liquor was centrifuged to separate a supernatant which was used for determining the IF activity induced. In the case of humans, the fresh spleen was collected from a person (adult deceased by external wounds) and used for the preparation of a leucocytes suspension on each occasion, and also blood was collected from the vein at the upper arm of a person (adult), from which the serum was separated to use for the preparation of a serum suspension on each occasion.
(§2) The IF activities were determined by using the cells shown in Table 5 in a similar manner to that hereinafter described in Experiment 1.

human spleen cells = assay: IF induction in vitro, human spleen (Table 6); settings: control 1.0 μg/ml
Experimental: as §1, §2

## Poly I:C
Rabbit spleen cells
  IF activity in vitro (Control): 220
Mouse spleen cells
  IF activity in vitro (Control): 120
Human spleen cells
  IF activity in vitro (Control): < 5
